# Several values for one entry are separate records, joined by “and”; a condition that tells them apart may be missing. Equal entries are not always repeated.
# Tested on: 786-0 complex spheroids with HUVEC/MSC, growth % test/control
# Assay: Anticancer human tumor 786-0 cell line growth inhibition [AhR];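 further: compound exposure lasted seven days before the read-out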
# Conditions: for viability, T/C: stronger effect = lower value
# From the text: Multicellular complex tumor spheroid response to aryl hydrocarbon receptor antagonists in combination with a variety of drugs and investigational agents in selected tumor cell lines
# The current study was undertaken to assess response to aryl hydrocarbon receptor antagonists in combination with standard-of-care drugs and investigational agents in solid tumor complex spheroid models. Complex spheroids include a stromal component modeled by human endothelial cells (HUVEC) and fibroblasts modeled by human mesenchymal stem cells (MSCs). The concentration ranges selected for each drug and investigational agent were based upon clinically achievable concentrations if the clinical Cmax of the agent was known.
# Compounds. The drugs and investigational agents: BAY 2416964 (NSC825713), GNF351 (NSC835774), CH-223191 (NSC835775), CPI-455 (NSC825282), aza-TdCyd (NSC777586), decitabine (NSC127716), belinostat (NSC758774), entinostat (NSC756642), pevonedistat (NSC761192), tazemetostat (NSC777109), talazoparib (NSC765396), olaparib (NSC753686), selinexor (NSC780203), nedisertib (M3814, NSC802822), bortezomib (NSC756655), venetoclax (NSC766270), doxorubicin (NSC123127), elimusertib (BAY189344, NSC800525), ceralasertib (AZD6738, NSC777638), TAK-243 (NSC785004), alisertib (NSC759677), etoposide (NSC141540), topotecan (NSC609699), eribulin (NSC707389), gemcitabine (NSC613327), carboplatin (NSC241240), cisplatin (NSC119875), and SN-38 (NSC673596) were obtained from the National Cancer Institute (NCI) Developmental Therapeutics Program Chemical Repository (32). The FDA-approved anticancer drug set is available from the Developmental Therapeutics Program at https://dtp.cancer.gov/organization/dscb/obtaining/available plates.htm. […] The stock solutions were prepared in dimethyl sulfoxide (DMSO, Sigma-Aldrich, St. Louis, MO, cat. D2650), except for the platinum compounds which were prepared in saline (Quality Biological, Gaithersburg, MD, cat. 114-055-101), at 800-fold the tested concentration and stored at -70 degrees C prior to their use. All drugs and investigational agents were tested over a range starting from a high concentration at or near the clinical Cmax and decreasing in half-log increments. If the clinical Cmax for an agent had not been determined, the highest concentration tested was 10 microM (Table 1).
# Cell Culture. All cells were maintained in an incubator at 37 degrees C and 5% CO2 with 95% humidity. The PDC lines were cultured according to standard operating procedures established by the NCI PDMR (https://pdmr.cancer.gov). Briefly, all PDCs were thawed and cultured in Matrigel-coated flasks prepared with a working solution of 1X Ham's F-12 nutrient mix, without supplementation (Invitrogen, Waltham, MA, cat. 11765054), 100 U/mL penicillin-streptomycin (Invitrogen, cat. 15140122), and 2.5% Matrigel (Corning Inc., Corning, NY, cat. 354248) for the first three passages. All PDCs were cultured in complete DMEM/F-12 media containing advanced DMEM/F-12 (Invitrogen, cat. 12634028), 4.9% defined fetal bovine serum, heat inactivated (HyClone Laboratories Inc., Logan, UT, cat. SH30070.03HI), 389 ng/mL hydrocortisone (Sigma-Aldrich, cat. H4001), 9.7 ng/mL human EGF recombinant protein (Invitrogen, cat. PHG0313), 23.4 microg/mL adenine (Sigma-Aldrich, cat. A2786), 97.3 U/mL penicillin-streptomycin (Invitrogen, cat. 15140122), 1.9 mM L-glutamine (Invitrogen, cat. 25030081), and 9.7 microM Y-27632 dihydrochloride (Tocris Bioscience, Bristol, United Kingdom, cat. 1254). The PDCs were cultured in complete DMEM/F12 media without 10 microM Y-27632 dihydrochloride for at least two passages prior to the screen. The established cell lines NCI-H1341 and […] were cultured in DMEM/F-12, HEPES (Invitrogen, cat. 11330032), 5% defined fetal bovine serum (HyClone Laboratories Inc., cat. SH30070.03), ITS premix universal culture supplement [insulin (5 microg/mL), transferrin (5 microg/mL), and selenious acid (5 ng/mL)] […]
# [1] = curve of first compound, second compound 0.1 µM
# [2] = curve of first compound, second compound 0.316 µM
# [3] = curve of first compound, second compound 1 µM
# [4] = curve of first compound, second compound 3.16 µM
# [5] = curve of first compound, second compound 10 µM
# [6] = second compound 0.1 µM, first compound 0.0316 µM
# [7] = second compound 0.1 µM, first compound 0.1 µM
# [8] = second compound 0.316 µM, first compound 0.0316 µM
# [9] = second compound 0.316 µM, first compound 0.1 µM
# [10] = second compound 1 µM, first compound 0.0316 µM
# [11] = second compound 1 µM, first compound 0.1 µM
# [12] = second compound 3.16 µM, first compound 0.0316 µM
# [13] = second compound 3.16 µM, first compound 0.1 µM
# [14] = second compound 10 µM, first compound 0.0316 µM
# [15] = second compound 10 µM, first compound 0.1 µM
smiles,measurement,setting,value
CC1COCCN1c1cc(C2(S(C)(=N)=O)CC2)nc(-c2ccnc3[nH]ccc23)n1 (centres undefined),"viability, T/C",compound 0.0316 µM,110% and 102% and 98.7%
same,"viability, T/C",compound 0.1 µM,110% and 102% and 98.6%
same,"viability, T/C",compound 0.316 µM,96.8% and 101% and 93.2%
same,"viability, T/C",compound 1 µM,96.6% and 96.8% and 94%
same,"viability, T/C",compound 3.16 µM,64.5% and 88.2% and 47.7%
same,"viability, T/C",compound 10 µM,17.9% and 27.9% and 15.4%
same,IC50,curve of compound,4620 nM and 6580 nM and 2990 nM
CC[C@@]1(O)C(=O)OCc2c1cc1n(c2=O)Cc2cc3c(CN(C)C)c(O)ccc3nc2-1 + CC(CO)NC(=O)c1cc(-c2ccc(Cl)cc2)nn(-c2cnn(C)c2)c1=O,IC50,[1],59 nM
same,IC50,[2],57.6 nM
same,IC50,[3],60.8 nM
same,IC50,[4],53.6 nM
same,IC50,[5],51.8 nM
same,"viability, T/C","second compound 0.1 µM, first compound 0.000316 µM",112%
same,"viability, T/C","second compound 0.1 µM, first compound 0.001 µM",119%
same,"viability, T/C","second compound 0.1 µM, first compound 0.00316 µM",111%
same,"viability, T/C","second compound 0.1 µM, first compound 0.01 µM",115%
same,"viability, T/C",[6],90.9%
same,"viability, T/C",[7],15.2%
same,"viability, T/C","second compound 0.316 µM, first compound 0.000316 µM",106%
same,"viability, T/C","second compound 0.316 µM, first compound 0.001 µM",114%
same,"viability, T/C","second compound 0.316 µM, first compound 0.00316 µM",112%
same,"viability, T/C","second compound 0.316 µM, first compound 0.01 µM",109%
same,"viability, T/C",[8],89.9%
same,"viability, T/C",[9],13.3%
same,"viability, T/C","second compound 1 µM, first compound 0.000316 µM",113%
same,"viability, T/C","second compound 1 µM, first compound 0.001 µM",107%
same,"viability, T/C","second compound 1 µM, first compound 0.00316 µM",108%
same,"viability, T/C","second compound 1 µM, first compound 0.01 µM",104%
same,"viability, T/C",[10],95.4%
same,"viability, T/C",[11],15.2%
same,"viability, T/C","second compound 3.16 µM, first compound 0.000316 µM",113%
same,"viability, T/C","second compound 3.16 µM, first compound 0.001 µM",116%
same,"viability, T/C","second compound 3.16 µM, first compound 0.00316 µM",109%
same,"viability, T/C","second compound 3.16 µM, first compound 0.01 µM",109%
same,"viability, T/C",[12],80.9%
same,"viability, T/C",[13],13.4%
same,"viability, T/C","second compound 10 µM, first compound 0.000316 µM",118%
same,"viability, T/C","second compound 10 µM, first compound 0.001 µM",116%
same,"viability, T/C","second compound 10 µM, first compound 0.00316 µM",118%
same,"viability, T/C","second compound 10 µM, first compound 0.01 µM",113%
same,"viability, T/C",[14],76.9%
same,"viability, T/C",[15],14.1%
COc1cc(C2c3cc4c(cc3C(OC3OC5COC(C)OC5C(O)C3O)C3COC(=O)C23)OCO4)cc(OC)c1O (centres undefined) + Cc1cncc(-c2nc(NCCc3c[nH]c4ccccc34)c3ncn(C(C)C)c3n2)c1,IC50,[1],1150 nM
same,IC50,[2],1290 nM
same,IC50,[3],1320 nM
same,IC50,[4],444 nM
same,IC50,[5],< 31.6 nM
same,"viability, T/C",[6],114%
same,"viability, T/C",[7],127%
same,"viability, T/C","second compound 0.1 µM, first compound 0.316 µM",87%
same,"viability, T/C","second compound 0.1 µM, first compound 1 µM",49.9%
same,"viability, T/C","second compound 0.1 µM, first compound 3.16 µM",35.5%
same,"viability, T/C","second compound 0.1 µM, first compound 10 µM",9.86%
same,"viability, T/C",[8],128%
same,"viability, T/C",[9],121%
same,"viability, T/C","second compound 0.316 µM, first compound 0.316 µM",86.8%
same,"viability, T/C","second compound 0.316 µM, first compound 1 µM",52.9%
same,"viability, T/C","second compound 0.316 µM, first compound 3.16 µM",33.4%
same,"viability, T/C","second compound 0.316 µM, first compound 10 µM",7.71%
same,"viability, T/C",[10],107%
same,"viability, T/C",[11],117%
same,"viability, T/C","second compound 1 µM, first compound 0.316 µM",85.2%
same,"viability, T/C","second compound 1 µM, first compound 1 µM",53.3%
same,"viability, T/C","second compound 1 µM, first compound 3.16 µM",32.3%
same,"viability, T/C","second compound 1 µM, first compound 10 µM",4.59%
same,"viability, T/C",[12],81.3%
same,"viability, T/C",[13],79.1%
same,"viability, T/C","second compound 3.16 µM, first compound 0.316 µM",56.2%
same,"viability, T/C","second compound 3.16 µM, first compound 1 µM",30.5%
same,"viability, T/C","second compound 3.16 µM, first compound 3.16 µM",15.8%
same,"viability, T/C","second compound 3.16 µM, first compound 10 µM",2.3%
same,"viability, T/C",[14],6.55%
same,"viability, T/C",[15],4.82%
same,"viability, T/C","second compound 10 µM, first compound 0.316 µM",1.24%
same,"viability, T/C","second compound 10 µM, first compound 1 µM",0.35%
same,"viability, T/C","second compound 10 µM, first compound 3.16 µM",0.49%
same,"viability, T/C","second compound 10 µM, first compound 10 µM",0.43%
CC(C)c1c(-c2ccccc2)nc2c(C#N)c[nH]n2c1=O,"viability, T/C",compound 0.0316 µM,101% and 108% and 93.8%
same,"viability, T/C",compound 0.1 µM,106% and 99.9% and 109%
same,"viability, T/C",compound 0.316 µM,101% and 103% and 108%
same,"viability, T/C",compound 1 µM,105% and 101% and 100%
same,"viability, T/C",compound 3.16 µM,97.5% and 110% and 105%
same,"viability, T/C",compound 10 µM,99% and 98% and 97.1%
same,IC50,curve of compound,> 10000 nM

# — PubChem BioAssay AID1919003 (Molecular Pharmacology Branch, DTP, NCI, 2023)
